Structures are written as SMILES.

The test has as its target T1, CCK-B receptors (Cavia porcellus, UniProt H0VZC5).
T1 construct: Cerebral cortices were removed from Hartley-strain guinea pigs, the cerebral cortices were homogenized; from tissue; host or cells: cerebral cortex of Hartley-strain guinea pigs, crude membrane pellet
T1 sequence (H0VZC5 1-426): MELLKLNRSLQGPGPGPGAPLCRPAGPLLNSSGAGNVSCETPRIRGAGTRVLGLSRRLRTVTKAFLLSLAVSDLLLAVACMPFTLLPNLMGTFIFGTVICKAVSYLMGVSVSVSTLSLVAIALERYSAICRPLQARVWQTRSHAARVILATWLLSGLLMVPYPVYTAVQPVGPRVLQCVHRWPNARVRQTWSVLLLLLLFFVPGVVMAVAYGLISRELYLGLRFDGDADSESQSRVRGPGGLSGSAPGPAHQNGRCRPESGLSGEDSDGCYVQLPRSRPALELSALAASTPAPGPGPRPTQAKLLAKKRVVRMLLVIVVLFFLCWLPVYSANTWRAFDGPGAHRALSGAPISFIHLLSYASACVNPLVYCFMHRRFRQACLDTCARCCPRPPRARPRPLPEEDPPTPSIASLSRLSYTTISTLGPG
Kind of test: Measurement of Binding Affinity for CCK-B Receptors. Further details: species or system Hartley-strain guinea pig. Conditions: inhibition of specific [3H]CCK-8 (1.0 nM) binding; guinea pig cerebral cortex; 25° C., 2 hours; pH 6.5; read-out: Ki (CCK-B receptors).
Procedure: Cerebral cortices were removed from Hartley-strain guinea pigs, the cerebral cortices were homogenized in 50 volumes of 50 mM Tris-HCl buffer (pH7.4) and centrifuged at 50000×g for 10 minutes. The Tris-HCl buffer was added to the pellet and recentrifuged as above two times. The final pellet was rehomogenized in 10 mM HEPES buffer (pH 6.5, which hereinafter be abbreviated as "solvent") containing 5 mM MgCl2, 1 mM EGTA, 0.25 mg/ml bacitracin and 130 mM NaCl, and used as the receptor preparation.
Binding assay was measured as follows. Fifty μl of [^3 H]CCK-8 (at the final concentration of 1.0 nM) and 900 μl of the receptor preparation (800 μg protein/tube) were added to 50 μl of either solvent, CCK-8 (1 μM) or a test compound. These ware reacted at 25° C. for 2 hours. After the reaction, the mixture was filtrated through Whatman GF/B filter presoaked in 0.1% BSA. The filter was washed with 3 ml of ice-cold 50 mM Tris-HCl buffer (pH 7.4) four times, immediately after the filtration. The filter was soaked in the ACS-II scintillation cocktail for a day and radioactivity was measured using a liquid scintillation counter. Non-specific binding was defined as the radioactivity in the presence of 1 μM CCK-8. Specific binding was defined as the difference between total binding (used solvent without CCK-8) and non-specific binding. Inhibitor dissociation constant (Ki) of each test compound was determined from the inhibition of specific [^3 H]CCK-8 binding.
What is called Ki is a measure of affinity in units of concentration, obtained from inhibition or displacement. Turning to `Cc1cccc(NC(=O)NC2CN(c3ccccc3)c3ccccc3N(CC(=O)C(C)(C)C)C2=O)c1` (centres unmarked) [Example 71, 1-(1-tert-butylcarbonylmethyl-2-oxo-5-phenyl-1,3,4,5-tetrahydro-2H-1,5-benzodiazepin-3-yl)-3-(3-methylphenyl)urea], the Ki came to 2.88 nM.

As to `CCC(C)(C)C(=O)N1CC(NC(=O)Nc2cccc(C(=O)O)c2)C(=O)N(CC(=O)c2ccccc2C)c2cc(C)ccc21` (centres unmarked) [Example 93, 3-[3-[1-(2-toluoylmethyl)-2-oxo-5-(2,2-dimethylbutanoyl)-8-methyl-1,3,4,5-tetrahydro-2H-1,5-benzodiazepin-3-yl]ureido]benzoic acid], the Ki was 1.29 nM.

As for `Cc1ccccc1C(=O)CN1C(=O)C(NC(=O)Nc2cccc(SCC(=O)O)c2)CN(C(=O)C(C)(C)C)c2ccccc21` (centres unmarked) [Example 78, 3-[3-[1-(2-toluoylmethyl)-2-oxo-5-pivaloyl-1,3,4,5-tetrahydro-2H-1,5-benzodiazepin-3-yl]ureido]phenylthioacetic acid], the Ki stood at 0.18 nM.

Consider `CC(C)(C)C(=O)CN1C(=O)[C@H](NC(=O)Nc2cccc(OC(C)(C)C(=O)O)c2)CN(C2CCCCC2)c2ccccc21` [Example 125, (R)-(-)-2-methyl-2-[3-[3-(1-tert-butylcarbonylmethyl-2-oxo-5-cyclohexyl-1,3,4,5-tetrahydro-2H-1,5-benzodiazepin-3-yl)ureido]phenoxy]propionic acid], for which the Ki was 0.43 nM.

Turning to `COc1cccc(NC(=O)NC2CN(C3CCCCC3)c3ccccc3N(CC(=O)C(C)(C)C)C2=O)c1` (centres unmarked) [Example 151, 1-(1-tert-butylcarbonylmethyl-2-oxo-5-cyclohexyl-1,3,4,5-tetrahydro-2H-1,5-benzodiazepin-3-yl)-3-(3-methoxyphenyl)urea], the Ki was determined as 2.86 nM.

For `Cc1ccccc1C(=O)CN1C(=O)C(NC(=O)Nc2cccc(CC(=O)O)c2)CN(C(=O)C(C)(C)C)c2ccccc21` (centres unmarked) [Example 72, 3-[3-[1-(2-toluoylmethyl)-2-oxo-5-pivaloyl-1,3,4,5-tetrahydro-2H-1,5-benzodiazepin-3-yl]ureido]phenylacetic acid], the inhibition constant Ki came to 1.57 nM.

With `COC(=O)N1CC(NC(=O)Nc2cccc(C)c2)C(=O)N(CC(=O)c2ccccc2C)c2ccccc21` (centres unmarked) [Example 49, 1-[1-(2-toluoylmethyl)-2-oxo-5-methoxycarbonyl-1,3,4,5-tetrahydro-2H-1,5-benzodiazepin-3-yl]-3-(3-methylphenyl)urea], the inhibitory constant (Ki) came out at 5.02 nM.

`Cc1cccc(NC(=O)NC2CN(C(=O)C(C)(C)C)c3ccc(C)cc3N(CC(=O)c3ccccc3C)C2=O)c1` (centres unmarked) [Example 4, 1-[1-(2-toluoylmethyl)-2-oxo-5-pivaloyl-8-methyl-1,3,4,5-tetrahydro-2H-1,5-benzodiazepin-3-yl]-3-(3-methylphenyl)urea]: the inhibitory constant (Ki) was 1.11 nM.

For the compound `Cc1ccccc1C(=O)CN1C(=O)C(NC(=O)Nc2cccc(-c3noc(=O)[nH]3)c2)CN(C(=O)C(C)(C)C)c2ccccc21` (centres unmarked) [Example 62, 1-[1-(2-toluoylmethyl)-2-oxo-5-pivaloyl-1,3,4,5-tetrahydro-2H-1,5-benzodiazepin-3-yl]-3-[3-(5-oxo-4H-1,2,4-oxadiazolin-3-yl)phenyl]urea], the inhibitory constant (Ki) came out at 0.79 nM.

As to `CN(C(=O)CN1C(=O)C(NC(=O)Nc2cccc(C(=O)NS(C)(=O)=O)c2)CN(c2ccccc2)c2ccccc21)c1ccccc1` (centres unmarked) [Example 15, 1-[1-(N-phenyl-N-methyl)carbamoylmethyl-2-oxo-5-phenyl-1,3,4,5-tetrahydro-2H-1,5-benzodiazepin-3-yl]-3-(3-methylsulfonylaminocarbonylphenyl)urea], the Ki was 0.99 nM.

On to `CC(C)(C)C(=O)CN1C(=O)[C@H](NC(=O)Nc2cccc(C(=O)O)c2)CN(C[C@@H]2CC[C@H]3C[C@@H]2C3(C)C)c2ccccc21` [Example 157, 3-[3-[(3R)-1-tert-butylcarbonylmethyl-2-oxo-5-[(1S, 2R, 5S)-pinan-10-yl]-1,3,4,5-tetrahydro-2H-1,5-benzodiazepin-3-yl]ureido]benzoic acid], for which the inhibition constant (Ki) is 1.97 nM.

These data come from patent US6239131A, “1,5 Benzodiazepine derivatives” (Zeria Pharmaceutical Co., Ltd., priority 1996, dated 2001).
